The values below come from US20240148821A1, “PHARMACEUTICAL USE OF CYCLIC PEPTIDE COMPOUND” (CHUGAI SEIYAKU KABUSHIKI KAISHA, priority 2021, published 2024).

Molecules are shown by their SMILES. Bridge positions count the residues as written; N and C are the ends. Square brackets hold non-standard residues; d marks the D form. Peptide text beside a SMILES is read from it. * marks the point of attachment. hPhe(3,5-F2-4-CF3) = N[C@@H](CCc1cc(F)c(C(F)(F)F)c(F)c1)C(=O)O; NMeAbu(3,3-F2-piperidino) = CN[C@@H](CCN1CCCC(F)(F)C1)C(=O)O; hPhe(3-Cl-4-CF3) = N[C@@H](CCc1ccc(C(F)(F)F)c(Cl)c1)C(=O)O; hPhe(3-F,4-CF3) = N[C@@H](CCc1ccc(C(F)(F)F)c(F)c1)C(=O)O; NMePhe(4-Cl) = CN[C@@H](Cc1ccc(Cl)cc1)C(=O)O; NMePhe(4-Me) = CN[C@@H](Cc1ccc(C)cc1)C(=O)O; NMeGly(cPent) = CN[C@H](C(=O)O)C1CCCC1; Phe(3-I) = N[C@@H](Cc1cccc(I)c1)C(=O)O; Phe(4-F) = N[C@@H](Cc1ccc(F)cc1)C(=O)O; Pro(4,4-F2) = O=C(O)[C@@H]1CC(F)(F)CN1; NMeCha = CN[C@@H](CC1CCCCC1)C(=O)O; NMehLeu = CN[C@@H](CCC(C)C)C(=O)O; NMeChg = CN[C@H](C(=O)O)C1CCCCC1; NMeF = CN[C@@H](Cc1ccccc1)C(=O)O; NMeD = CN[C@@H](CC(=O)O)C(=O)O; NMeL = CN[C@@H](CC(C)C)C(=O)O; Chg = N[C@H](C(=O)O)C1CCCCC1; dNMeAbu = CC[C@@H](NC)C(=O)O; NMeV = CN[C@H](C(=O)O)C(C)C; d(β3hA) = C[C@@H](N)CC(=O)O; NMeS = CN[C@@H](CO)C(=O)O; Pip = O=C(O)[C@@H]1CCCCN1; Morpholide = C1CN(*)CCO1; NMeA = CN[C@@H](C)C(=O)O; NMeAib = CNC(C)(C)C(=O)O; Piperidide = C1CCN(*)CC1; Ac5c = NC1(C(=O)O)CCCC1; Aze = O=C(O)[C@@H]1CCN1; NcPrGly = O=C(O)CNC1CC1; Sar = CNCC(=O)O; Propyl = CCC* A value given as a limit tells only on which side of the number the result lay.

For this assay, the system named is Human pancreatic cancer cell line AsPC-1 (G12D mutation Kras). Put plainly: AsPC-1 cell growth inhibition (AsPC-1 CGI). The format is cell-based. Particulars: read-out: AsPC-1 cell growth inhibition, 50% growth inhibitory concentration (IC50 value); 96 hours, CellTiter-Glo, values classified in ranges. In general terms: Cellular ATP, detected with luciferase, serves as a proxy for viable cell number.
Description: Test compounds were serially dilated with dimethyl sulfoxide, and 200 nL was then dispensed to a U-bottom 96-well plate using Labcyte Echo. […] The cell suspension was dispensed to a. plate containing a test compound at 100 μL per well and incubated at 37° C. in a 5% carbon dioxide gas incubator. 96 hours later, 80 μL of CellTiter-Glo (Promega) was added to each well and fluorescence was measured.
On to `CC[C@H](C)[C@@H]1NC(=O)[C@@H]2CCCCN2C(=O)C[C@@H](C)NC(=O)[C@H](CC(C)C)N(C)C(=O)C2(CCCC2)NC(=O)[C@H](CC(C)C)N(C)C(=O)[C@H](CCc2ccc(C(F)(F)F)c(Cl)c2)NC(=O)CN(C)C(=O)[C@H](CC2CCCCC2)N(C)C(=O)CN(C)C(=O)CN(C)C1=O` [Compound 213] (cyclo([Ac5c][NMeL][d(β3hA)][Pip]I[Sar][Sar][NMeCha][Sar][hPhe(3-Cl-4-CF3)][NMeL])), for which the IC50 is more than 500 nM.
The figure for `CC[C@H](C)[C@@H]1NC(=O)[C@H](CC(C)C)N(C)C(=O)C[C@@H](C)NC(=O)[C@H](C(C)C)N(C)C(=O)C2(CCCC2)NC(=O)[C@@H]2CCCN2C(=O)[C@H](CCc2ccc(C(F)(F)F)c(Cl)c2)NC(=O)CN(C)C(=O)[C@H](CC2CCCCC2)N(C)C(=O)CN(C)C(=O)CN(C2CC2)C1=O` [Compound 542] (cyclo([Ac5c][NMeV][d(β3hA)][NMeL]I[NcPrGly][Sar][NMeCha][Sar][hPhe(3-Cl-4-CF3)]P)) is more than 500 nM; for `CC[C@H](C)[C@@H]1NC(=O)[C@H](CC(C)C)N(C)C(=O)C[C@@H](C)NC(=O)[C@H](C(C)C)N(C)C(=O)C2(CCCC2)NC(=O)[C@@H]2CCCN2C(=O)[C@H](CCc2ccc(C(F)(F)F)c(Cl)c2)NC(=O)CN(C2CC2)C(=O)[C@H](CC2CCCCC2)N(C)C(=O)CN(C)C(=O)CN(C)C1=O` [Compound 204] (cyclo([Ac5c][NMeV][d(β3hA)][NMeL]I[Sar][Sar][NMeCha][NcPrGly][hPhe(3-Cl-4-CF3)]P)) it is more than 500 nM; for `CC[C@@H]1C(=O)NC2(CCCC2)C(=O)N(C)[C@@H](C2CCCC2)C(=O)N(C)[C@H](C(=O)N2CCCCC2)CC(=O)N(C)[C@@H](CC(C)C)C(=O)N[C@@H]([C@@H](C)CC)C(=O)N(C)[C@@H](C)C(=O)N2CC[C@H]2C(=O)N(C)[C@@H](CC2CCCCC2)C(=O)N(C)CC(=O)N[C@@H](CCc2ccc(C(F)(F)F)c(Cl)c2)C(=O)N1C` [Compound 1441] ([NMeL]I[NMeA][Aze][NMeCha][Sar][hPhe(3-Cl-4-CF3)][dNMeAbu][Ac5c][NMeGly(cPent)][NMeD]-Piperidide; lactam N-11) it is more than 500 nM.
On to `CC[C@H](C)[C@@H]1NC(=O)[C@H](C)N(C)C(=O)C[C@@H](C(=O)N2CCCCC2)N(C)C(=O)[C@H](C(C)C)N(C)C(=O)C2(CCCC2)NC(=O)[C@H](CCN2CCCC(F)(F)C2)N(C)C(=O)[C@H](CCc2ccc(C(F)(F)F)c(Cl)c2)NC(=O)CN(C)C(=O)[C@H](CC2CCCCC2)N(C)C(=O)[C@@H]2CCN2C(=O)[C@H](C)N(C)C1=O` [Compound 682] ([NMeA]I[NMeA][Aze][NMeCha][Sar][hPhe(3-Cl-4-CF3)][NMeAbu(3,3-F2-piperidino)][Ac5c][NMeV][NMeD]-Piperidide; lactam N-11), for which the IC50 is more than 500 nM.
For the compound `CC[C@H](C)[C@@H]1NC(=O)[C@H](CC(C)C)N(C)C(=O)C[C@@H](C)NC(=O)[C@H](C2CCCCC2)N(C)C(=O)C2(CCCC2)NC(=O)[C@@H]2CCCN2C(=O)[C@H](CCc2ccc(C(F)(F)F)c(Cl)c2)NC(=O)CN(C)C(=O)[C@H](Cc2ccc(C)cc2)N(C)C(=O)CN(C)C(=O)CN(C)C1=O` [Compound 1856] (cyclo([Ac5c][NMeChg][d(β3hA)][NMeL]I[Sar][Sar][NMePhe(4-Me)][Sar][hPhe(3-Cl-4-CF3)]P)), the IC50 was more than 500 nM.
In the case of `CCCOC[C@H]1C(=O)N(C)CC(=O)N[C@@H](CCc2ccc(C(F)(F)F)c(F)c2)C(=O)N2CCC[C@H]2C(=O)NC2(CCCC2)C(=O)N(C)[C@@H](C2CCCC2)C(=O)N(C)[C@H](C(=O)N2CCOCC2)CC(=O)N(C)[C@@H](CC(C)C)C(=O)N[C@@H]([C@@H](C)CC)C(=O)N(C)[C@@H](C)C(=O)N2CC[C@H]2C(=O)N1C` [Compound 9] ([NMeL]I[NMeA][Aze][NMeS](Propyl)[Sar][hPhe(3-F,4-CF3)]P[Ac5c][NMeGly(cPent)][NMeD]-Morpholide; lactam N-11), the IC50 is not above 20 nM.
As to `CC[C@H](C)[C@@H]1NC(=O)[C@H](CC(C)C)N(C)C(=O)C[C@@H](C(=O)N2CCCCC2)N(C)C(=O)[C@H](CC(C)C)NC(=O)C(C)(C)N(C)C(=O)[C@H](Cc2ccc(F)cc2)NC(=O)[C@H](Cc2cccc(I)c2)NC(=O)CN(C)C(=O)[C@H](CC2CCCCC2)N(C)C(=O)CN(C)C(=O)CN(C)C1=O` [Compound 711] ([NMeL]I[Sar][Sar][NMeCha][Sar][Phe(3-I)][Phe(4-F)][NMeAib]L[NMeD]-Piperidide; lactam N-11), the IC50 was more than 500 nM.
On to `CC[C@H](C)[C@@H]1NC(=O)[C@H](CC(C)C)N(C)C(=O)C[C@@H](C(=O)N2CCOCC2)N(C)C(=O)[C@H](C2CCCCC2)N(C)C(=O)C2(CCCC2)NC(=O)[C@@H]2CC(F)(F)CN2C(=O)[C@H](CCc2cc(F)c(C(F)(F)F)c(F)c2)NC(=O)CN(C)C(=O)[C@H](CC2CCCCC2)N(C)C(=O)CN(C)C(=O)CN(C)C1=O` [Compound 1337] ([NMeL]I[Sar][Sar][NMeCha][Sar][hPhe(3,5-F2-4-CF3)][Pro(4,4-F2)][Ac5c][NMeChg][NMeD]-Morpholide; lactam N-11), for which the IC50 is not above 20 nM.
With `CC[C@H](C)[C@@H]1NC(=O)[C@H](C)N(C)C(=O)C[C@@H](C(=O)N2CCCCC2)N(C)C(=O)[C@H](C(C)C)N(C)C(=O)C2(CCCC2)NC(=O)[C@@H]2CCCN2C(=O)[C@H](CCc2ccc(C(F)(F)F)c(Cl)c2)NC(=O)CN(C)C(=O)[C@H](CC2CCCCC2)N(C)C(=O)[C@@H]2CCN2C(=O)[C@H](CC2CCCCC2)N(C)C1=O` [Compound 1580] ([NMeA]I[NMeCha][Aze][NMeCha][Sar][hPhe(3-Cl-4-CF3)]P[Ac5c][NMeV][NMeD]-Piperidide; lactam N-11), the IC50 is more than 500 nM.
Turning to `CC[C@H](C)[C@@H]1NC(=O)[C@H](C)N(C)C(=O)C[C@@H](C(=O)N2CCCCC2)NC(=O)[C@H](CC(C)C)N(C)C(=O)[C@H](Cc2ccccc2)N(C)C(=O)[C@H](CC(C)C)NC(=O)[C@H](CCc2ccc(C(F)(F)F)c(Cl)c2)NC(=O)CN(C)C(=O)[C@H](Cc2ccc(Cl)cc2)N(C)C(=O)CN(C)C(=O)CN(C)C1=O` [Compound 861] ([NMeA]I[Sar][Sar][NMePhe(4-Cl)][Sar][hPhe(3-Cl-4-CF3)]L[NMeF][NMeL]D-Piperidide; lactam N-11), the IC50 is more than 500 nM.
As for `CC[C@H](C)[C@@H]1NC(=O)[C@H](CCC(C)C)N(C)C(=O)C[C@@H](C(=O)N2CCOCC2)N(C)C(=O)[C@H](C2CCCC2)N(C)C(=O)C2(CCCC2)NC(=O)[C@@H]2CCCN2C(=O)[C@H](CCc2ccc(C(F)(F)F)c(Cl)c2)NC(=O)CN(C)C(=O)[C@H](C2CCCC2)N(C)C(=O)[C@@H]2CCN2C(=O)[C@H](C)N(C)C1=O` [Compound 1237] ([NMehLeu]I[NMeA][Aze][NMeGly(cPent)][Sar][hPhe(3-Cl-4-CF3)]P[Ac5c][NMeGly(cPent)][NMeD]-Morpholide; lactam N-11), the IC50 is not above 20 nM.
The figure for `CC(C)C[C@H]1C(=O)N[C@@H](C2CCCCC2)C(=O)N(C)CC(=O)N(C)CC(=O)N(C)[C@@H](CC2CCCCC2)C(=O)N(C)CC(=O)N[C@@H](CCc2ccc(C(F)(F)F)c(Cl)c2)C(=O)N2CCC[C@H]2C(=O)NC2(CCCC2)C(=O)N(C)[C@@H](C(C)C)C(=O)N(C)[C@H](C(=O)N2CCCCC2)CC(=O)N1C` [Compound 281] ([NMeL][Chg][Sar][Sar][NMeCha][Sar][hPhe(3-Cl-4-CF3)]P[Ac5c][NMeV][NMeD]-Piperidide; lactam N-11) is more than 500 nM.
